Assay results: US20030040485A1, “alpha/beta-adrenoceptors blockers and angiotensin converting enzyme inhibitors derived from hydroxyphenyl carboxylic acid and alcohol” (priority 2001, published 2003)

Assays:
[1] = system: blood pressure of normotensive male Wistar rats; experiment: Heart rate and blood pressure in living rat (i.v., anaesthetized); type: in vivo; settings: maximal decrease, 2 mg/kg i.v.
Text: Normotensive Male Wistar rats (NTRs), weighing 200˜300 g were abdominal anaesthetized with pentobarbital sodium. Tracheal was cannulated to maintain normal respiration. Polyethylene tube was inserted into the left femoral vein to facilitate drug administration. A 3-way stopcock was used, with one end comnected to a syringe for drug injection, while the other end was connected to the syringe filled with physiological saline. The latter was used to prevent residual drugs in the polyethylene tube after injection, which would affect experimental accuracy.
The right femoral artery was also inserted with polyethylene, and a 3-way stopcock was used tool, where one end was connected to heparin solution to prevent embolism. The other end was comnected to a Disposable Diaphragm Dome, TA1019, and linked to a pressure transducer (Model P10EZ; Spectramed, Oxnard, Calif., USA). Through an amplifier, a recorder recorded the overall and average arterial pressure; heart rate to evaluate the effect of drug on blood pressure and heart rate. Different concentrations 0.1, 1.0, 2.0, 3.0 mg/kg of test compounds were given to the rats via femoral vein and the differences in the heart rate and blood pressure were compared. Table 2 shown maximal decrease of blood pressure affect of compounds after given 2.0 mg/kg test compounds to the rats.

[2] = system: β2-adrenoceptor (trachea); experiment: β2-adrenoceptor antagonism, trachea, pA2; design: species or system rat; settings: Schild plot, mean ± SEM of six to eight experiments
Description: (§1) When the spontaneously beating rate of right atria reached a certain stability, cumulative administration of L-isoproterenol from 1×10^−10˜3×10^−10 M caused the heart rate to increase continuously, and a cumulative dose-response curve was obtained. Then the L-isoproterenol was thoroughly washed off with Kreb's solution to recover the right atria's heart rate stability. After the equilibrum was reached again for at least 60 minutes, different concentrations (10^−7, 10^−6, 10^−5 M) of compounds were added. 30 minutes later, cumulative administration of L-isoproterenol from 1×10^−10˜3×10^−10 M were carried out again, and another new cumulative dose-response curve was obtained. Administration of L-isoproterenol started from concentration 1×10^−10 M, and the concentration was raised 0.5 log each time for a total of six times. Cumulative administration interval was when the previous concentration reached its greatest effect, the next concentration would be immediately given. […] In other groups of rats, after separate administration of test compounds, their pA2 values were obtained.
pA2=−Log KB Log(DRADJ−1)=n log[B]−LogKB

[3] = biological target: T1, angiotensin converting enzyme (ACE) (Rattus norvegicus, UniProt P47820); experiment: ACE inhibitory activity in rat serum (Hycor kit, [3H]-hippuryl-glycyl-glycine); type: biochemical; settings: mean of three samples
T1 construct: from tissue; host or cells: rat serum
T1 sequence (P47820 36-1238 limits assumed): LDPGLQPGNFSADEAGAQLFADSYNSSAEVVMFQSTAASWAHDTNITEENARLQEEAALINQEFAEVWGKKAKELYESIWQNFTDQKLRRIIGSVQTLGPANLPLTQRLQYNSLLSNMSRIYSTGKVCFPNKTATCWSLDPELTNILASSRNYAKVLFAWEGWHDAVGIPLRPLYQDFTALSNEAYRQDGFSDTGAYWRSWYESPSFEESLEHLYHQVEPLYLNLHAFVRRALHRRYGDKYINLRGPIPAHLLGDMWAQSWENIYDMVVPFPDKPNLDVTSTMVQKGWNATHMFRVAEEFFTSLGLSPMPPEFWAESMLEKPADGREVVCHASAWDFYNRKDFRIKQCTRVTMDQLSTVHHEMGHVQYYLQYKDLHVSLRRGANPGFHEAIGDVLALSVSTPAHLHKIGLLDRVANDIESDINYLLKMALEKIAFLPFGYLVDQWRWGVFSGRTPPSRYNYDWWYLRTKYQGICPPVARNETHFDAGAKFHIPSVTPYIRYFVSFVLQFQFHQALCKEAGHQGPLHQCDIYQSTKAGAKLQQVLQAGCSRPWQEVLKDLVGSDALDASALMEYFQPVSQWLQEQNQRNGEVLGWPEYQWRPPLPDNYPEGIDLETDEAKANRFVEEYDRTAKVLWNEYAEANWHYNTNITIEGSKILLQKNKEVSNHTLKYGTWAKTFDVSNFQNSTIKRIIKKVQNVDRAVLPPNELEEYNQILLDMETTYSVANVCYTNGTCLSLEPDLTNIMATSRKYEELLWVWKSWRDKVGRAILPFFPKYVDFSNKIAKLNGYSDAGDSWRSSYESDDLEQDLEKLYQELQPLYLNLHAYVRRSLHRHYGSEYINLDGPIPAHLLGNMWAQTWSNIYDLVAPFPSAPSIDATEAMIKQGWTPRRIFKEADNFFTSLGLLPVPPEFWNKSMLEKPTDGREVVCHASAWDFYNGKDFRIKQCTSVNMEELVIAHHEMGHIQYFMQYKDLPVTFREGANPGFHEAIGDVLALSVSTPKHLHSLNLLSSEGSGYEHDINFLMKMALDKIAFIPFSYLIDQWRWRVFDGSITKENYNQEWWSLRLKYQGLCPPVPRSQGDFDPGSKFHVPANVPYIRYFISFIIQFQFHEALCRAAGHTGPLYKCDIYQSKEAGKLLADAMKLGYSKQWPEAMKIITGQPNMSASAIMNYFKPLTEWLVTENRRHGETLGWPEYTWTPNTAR
Description: ACE value in serum was determined by Hycor kit, rat serum were cultured in 37° C. of [^3H]-hippuryl-glycyl-glycine for 60 minutes. While [^3H]-hippuryl-glycyl-glycine contains three peptide. [^3H] hippuric acid was obtained when extracted of culture solution with ethyl acetate, the content be determined by spectrophotometer. The content in serum sample was as the control group after it was added with 10^−8M, 10^−7M, 10^−6M compounds, then dissolved in PBS.

[4] = system: β1-adrenoceptor (right atrium); experiment: β1-adrenoceptor antagonism, spontaneously beating right atrium, pA2 vs L-isoproterenol; settings: for β1/β2 Ratio: antilogarithm of difference between mean pA2 of right atrium and trachea; for β1 pA2 value, Right atrium: Schild plot, mean ± SEM of six to eight experiments
Description: The spontaneously-beating right atria was clipped on both end by heart shaped clips, where one end was fixed at the bottom of 10 ml of tissue bath made of physiological saline solution, and temperature maintained at 37° C. The other end of the atria was connected to a force transducer, and isometric contractions and beating rate of the right atria were recorded by COULBOURN AT-High-Speed VideoFigure. After the samples were given 250 mg of contractions and reach equilibrium the following experiments were carried out:
as §1
pA2=−Log KB Log(DRADJ−1)=n log[B]−LogKB

SMILES | Decrease of blood pressure [1] | β2 pA2 value, Trachea [2] | Inhibitory activity of ACE, In Rat Serum ([3]; 10^−6M) | Inhibitory activity of ACE, In Rat Serum ([3]; 10^−7M) | Inhibitory activity of ACE, In Rat Serum ([3]; 10^−8M) | β1/β2 Ratio [4] | β1 pA2 value, Right atrium [4]
CCOC(=O)C(CCc1ccc(OCC(O)CNCCOc2ccccc2OC)cc1)NC(C)C(=O)N1CCCC1C(=O)O (mixture of isomers) [compound 6, Labetapril] | 65 ± 9.2 mmHg | 5.43 | 81% | 67% | 28% | 1.4 | 5.41
CCOC(=O)C(CCc1ccccc1)NC(C)C(=O)N1CCCC1C(=O)OCc1ccc(OCC(O)CNC(C)(C)C)c(OC)c1 (centres unmarked) [compound 7, Vanynolpril] | 55 ± 6.3 mmHg | 5.64 | 83% | 74% | 35% | 1.9 | 5.87
